In the supplement of paper PMC10331698:
± gives the standard deviation of the averaged measurements.

Columns and labels:
Assay in all cases: level (log10 ratio to DMSO vehicle control); higher = higher biomarker level / cell amount than vehicle control
[1] = compound: O=C(O)C(F)(F)C(F)(F)C(F)(F)OC(F)(F)F [Perfluoro(4-methoxybutanoic) acid] (in DMSO)
Protocol: (§1)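 BioMAP Diversity Plus panel of 12 human primary cell co-culture systems (3C, 4H, LPS, SAg, BT, BF4T, BE3C, CASM3C, HDF3CGF, KF3CT, MyoF, Mphg). Compounds were added 1 h before stimulation and left for 24 h (MyoF 48 h; BT 72 h for soluble read-outs or 6 d for IgG). Biomarkers were read by ELISA, cytotoxicity by SRB, PBMC viability and proliferation by Alamar Blue. Each well value was divided by the mean of 8 DMSO control wells on the same plate and log10 transformed; duplicate blinded samples were tested at 4 concentrations.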

[2] = compound: O=C(O)C(F)(OC(F)(F)C(F)(OC(F)(F)C(F)(OC(F)(F)C(F)(F)C(F)(F)F)C(F)(F)F)C(F)(F)F)C(F)(F)F [Perfluoro-(2,5,8-trimethyl-3,6,9-trioxadodecanoic)acid] (in DMSO)
Protocol: as §1

[3] = compound: OCC(F)(F)C(F)(F)C(F)(F)C(F)(F)C(F)(F)C(F)(F)CO [1H,1H,8H,8H-Perfluorooctane-1,8-diol] (in DMSO)
Protocol: as §1

[4] = compound: O=C(O)C=C(C(F)(F)F)C(F)(F)F [3,3-Bis(trifluoromethyl)-2-propenoic acid] (in DMSO)
Protocol: as §1

[5] = compound: O=C(O)CCC(F)(C(F)(F)F)C(F)(F)F [4,4-bis(Trifluoromethyl)-4-fluoropropanoic acid] (in DMSO)
Protocol: as §1

[6] = compound: OCCC(F)(F)C(F)(F)C(F)(F)C(F)(F)F [4:2 Fluorotelomer alcohol] (in DMSO)
Protocol: as §1

Test System	level (log10) ([1]; 6700 nM)	level (log10) ([1]; 20000 nM)	level (log10) ([1]; 60000 nM)	level (log10) ([2]; 1100 nM)	level (log10) ([2]; 3300 nM)	level (log10) ([2]; 10000 nM)	level (log10) ([3]; 6700 nM)	level (log10) ([3]; 20000 nM)	level (log10) ([3]; 60000 nM)	level (log10) ([4]; 6700 nM)	level (log10) ([4]; 20000 nM)	level (log10) ([4]; 60000 nM)	level (log10) ([5]; 6700 nM)	level (log10) ([5]; 20000 nM)	level (log10) ([5]; 60000 nM)	level (log10) ([6]; 6700 nM)	level (log10) ([6]; 20000 nM)	level (log10) ([6]; 60000 nM)
3C:CD62E/E-Selectin	-0.012 ± 0.057	-0.0085 ± 0.046	-0.014 ± 0.0085	-0.0005 ± 0.016	-0.0035 ± 0.005	0.019 ± 0.0071	0.0005 ± 0.013	-0.007 ± 0.0085	0.015 ± 0.013	-0.044 ± 0.0057	-0.081	-0.123 ± 0.026	-0.0065 ± 0.016	-0.0165 ± 0.016	-0.0085 ± 0.012	-0.019 ± 0.021	-0.012 ± 0.0014	-0.0105 ± 0.0078
KF3CT:SRB	-0.004 ± 0.0014	0.0015 ± 0.0021	-0.0015 ± 0.0064	0.0005 ± 0.011	0.0025 ± 0.016	-0.008 ± 0.0014	-0.003	-0.004 ± 0.0085	-0.0085 ± 0.0092	-0.0015 ± 0.0021	0.003	0.024 ± 0.0071	-0.003 ± 0.0042	0.004 ± 0.0071	0.008 ± 0.0099	-0.009 ± 0.0071	-0.009 ± 0.013	-0.0025 ± 0.00071
CASM3C:CD141/Thrombomodulin	0.001 ± 0.035	0.007 ± 0.035	-0.011 ± 0.044	0.0045 ± 0.036	0.018 ± 0.047	0.014 ± 0.027	-0.018 ± 0.0071	-0.02 ± 0.014	-0.0005 ± 0.026	0.03 ± 0.0071	0.0275 ± 0.0064	0.026 ± 0.0028	-0.0525 ± 0.069	-0.032 ± 0.041	0.0035 ± 0.019	-0.018 ± 0.075	0.0295 ± 0.035	0.0295 ± 0.043
BE3C:tPA	0.002 ± 0.023	-0.0065 ± 0.011	-0.0015 ± 0.016	-0.0035 ± 0.025	0.0075 ± 0.023	0.017 ± 0.04	0.0105 ± 0.016	0.01 ± 0.011	0.03 ± 0.0057	-0.16 ± 0.041	-0.166 ± 0.0042	-0.179 ± 0.073	0.02 ± 0.075	-0.001 ± 0.044	-0.025 ± 0.027	-0.0115 ± 0.0035	-0.015	0.013 ± 0.016
CASM3C:CD106/VCAM-1	-0.0045 ± 0.057	-0.0015 ± 0.042	-0.008 ± 0.035	0.0125 ± 0.012	-0.003 ± 0.031	-0.0025 ± 0.005	0.0055 ± 0.022	0.02 ± 0.0028	0.05 ± 0.0085	-0.152 ± 0.012	-0.216 ± 0.021	-0.284 ± 0.054	-0.0265 ± 0.049	-0.0185 ± 0.056	-0.033 ± 0.0099	0.0435 ± 0.023	-0.0035 ± 0.023	-0.0005 ± 0.042
CASM3C:M-CSF	-0.027 ± 0.021	-0.035 ± 0.021	0.029 ± 0.034	-0.0285 ± 0.029	0.0055 ± 0.016	0.002 ± 0.0014	-0.0185 ± 0.035	-0.0215 ± 0.0078	-0.012 ± 0.035	-0.0435 ± 0.0035	-0.044 ± 0.02	-0.068 ± 0.033	-0.0145 ± 0.042	0.024 ± 0.048	0.0875 ± 0.056	-0.085 ± 0.027	-0.048 ± 0.0028	0.0105 ± 0.0035
HDF3CGF:CXCL9/MIG	-0.0085 ± 0.0035	0.0025 ± 0.0064	-0.005 ± 0.037	-0.0165 ± 0.005	0.005 ± 0.0057	-0.023 ± 0.02	0.0025 ± 0.0021	0.045 ± 0.011	0.0245 ± 0.056	-0.006 ± 0.0028	-0.0075 ± 0.013	-0.0175 ± 0.015	-0.0105 ± 0.039	-0.0215 ± 0.056	-0.0305 ± 0.054	-0.0335 ± 0.037	-0.0065 ± 0.0064	0.01 ± 0.04
MyoF:CXCL8/IL-8	-0.0145 ± 0.018	-0.004 ± 0.0042	0.01 ± 0.0028	0.0475 ± 0.077	0.005 ± 0.0028	-0.006 ± 0.016	0 ± 0.0085	0.004 ± 0.025	0 ± 0.034	0.0915 ± 0.00071	0.107 ± 0.015	0.154 ± 0.016	0.0035 ± 0.0092	0.0085 ± 0.0078	0.009 ± 0.0099	-0.039	-0.0475 ± 0.0021	0.0435 ± 0.0078
HDF3CGF:Collagen III	0.0075 ± 0.033	0 ± 0.0099	-0.007 ± 0.021	-0.064 ± 0.072	0.014 ± 0.048	0.0695 ± 0.023	-0.0175 ± 0.013	-0.0195 ± 0.0092	-0.016 ± 0.0057	-0.0905 ± 0.012	-0.0985 ± 0.029	-0.0635 ± 0.069	-0.005 ± 0.04	-0.0495 ± 0.11	-0.0455 ± 0.04	-0.055 ± 0.068	-0.0105 ± 0.0092	0.0335 ± 0.03
BE3C:uPA	-0.004 ± 0.017	-0.0125 ± 0.012	0.0035 ± 0.005	0.0025 ± 0.0064	-0.011 ± 0.0014	-0.0025 ± 0.019	-0.012 ± 0.0071	-0.0125 ± 0.005	-0.009 ± 0.024	-0.0205 ± 0.011	-0.015 ± 0.0099	-0.0045 ± 0.018	-0.01 ± 0.038	-0.021 ± 0.031	-0.0355 ± 0.052	-0.032 ± 0.065	-0.014 ± 0.058	0.014 ± 0.027
KF3CT:IL-1alpha	-0.003 ± 0.0099	-0.015 ± 0.027	0 ± 0.021	-0.0015 ± 0.005	-0.0195 ± 0.012	0.006 ± 0.0028	-0.0085 ± 0.022	-0.0095 ± 0.0064	0.0225 ± 0.057	-0.001 ± 0.0057	-0.016 ± 0.016	-0.0185 ± 0.032	-0.008 ± 0.021	-0.0105 ± 0.0064	-0.0345 ± 0.043	-0.0325 ± 0.018	-0.056 ± 0.098	-0.0665 ± 0.067
lMphg:CXCL8/IL-8	0.001 ± 0.04	0.005 ± 0.011	0.083 ± 0.037	0.0035 ± 0.04	0.005 ± 0.02	0.0375 ± 0.033	-0.0085 ± 0.074	-0.03 ± 0.028	0.011 ± 0.034	0.081 ± 0.016	0.123 ± 0.014	0.201 ± 0.047	0.017 ± 0.059	0.032 ± 0.024	0.01 ± 0.076	0.003	0.0065 ± 0.033	0.0275 ± 0.035
HDF3CGF:CXCL8/IL-8	0.005 ± 0.0057	0.0015 ± 0.00071	0.008	0.0005 ± 0.00071	0 ± 0.0071	0.004 ± 0.0014	0.002 ± 0.0071	-0.0015 ± 0.005	0.009 ± 0.0099	0.008 ± 0.0014	-0.001	0.022 ± 0.011	-0.0105 ± 0.013	-0.0005 ± 0.0092	0.0065 ± 0.03	-0.007 ± 0.0028	-0.0105 ± 0.0064	-0.002 ± 0.011
MyoF:alpha-SM Actin	0.025 ± 0.028	-0.0045 ± 0.028	-0.002 ± 0.0057	-0.002 ± 0.027	-0.0105 ± 0.00071	0.002 ± 0.062	0.0075 ± 0.005	0.0035 ± 0.011	-0.005 ± 0.0028	-0.003 ± 0.054	-0.01 ± 0.067	-0.0795 ± 0.044	0.0205 ± 0.093	0.03 ± 0.095	0.0195 ± 0.079	-0.021	-0.0225 ± 0.0035	-0.0345 ± 0.018
3C:CD142/Tissue Factor	0.0125 ± 0.077	0.013 ± 0.095	-0.021 ± 0.12	-0.013 ± 0.0042	-0.0055 ± 0.015	-0.005 ± 0.013	-0.0245 ± 0.026	0.0195 ± 0.026	0.0425 ± 0.012	0.0445 ± 0.018	-0.022 ± 0.037	-0.138 ± 0.052	0.024 ± 0.0099	0.0115 ± 0.0078	-0.002 ± 0.023	-0.016 ± 0.018	-0.04 ± 0.045	-0.0375 ± 0.00071
HDF3CGF:Collagen I	-0.0125 ± 0.015	0.0115 ± 0.049	0.033 ± 0.061	0.027 ± 0.0028	-0.014 ± 0.051	0.0475 ± 0.013	0.0025 ± 0.012	0.025 ± 0.016	0.0085 ± 0.035	-0.031 ± 0.0028	-0.041 ± 0.02	-0.03 ± 0.038	-0.0105 ± 0.025	-0.0025 ± 0.028	0.0195 ± 0.026	-0.0205 ± 0.0078	-0.0025 ± 0.0092	0.0475 ± 0.05
